According to patent US20230406838A1, “MUTANT SELECTIVE EGFR INHIBITORS AND METHODS OF USE THEREOF” (Dana-Farber Cancer Institute, Inc., priority 2020, published 2023):

Tests used:
EGFR WT = EGFR WT (Homo sapiens, UniProt P00533); experiment: HTRF-based EGFR biochemical assay, WT; conditions: 100 μM ATP, enzyme 5 nM
EGFR L858R = EGFR L858R (Homo sapiens, UniProt P00533, L858R); experiment: HTRF-based EGFR biochemical assay, L858R; conditions: 100 μM ATP, enzyme 0.1 nM
Description: (§1) EGFR biochemical activity measurements were carried out using the homogeneous time-resolved fluorescence (HTRF) assay (Cisbio). Inhibitors and DMSO normalizations were first dispensed to empty black low-volume 384-well plates (Corning) with D300 digital liquid dispenser (HP). All reactions were carried out at room temperature and solutions were added to plates with a Multidrop Combi Reagent Dispenser (ThermoFisher). The reaction mixture (10 μL final volume) contained 1 μM tyrosine kinase peptide-biotin substrate and mutant EGFR in a reaction buffer (50 mM HEPES pH 7.0, 5 mM MgCl2, 1 mM MnCl2, 0.01% BSA, 2 mM TCEP, 0.1 mM NaVO4). […] Enzyme reaction solution (2× concentrations, 5 μL) was added to 384-well plates containing compounds and incubated for 30 mins. Enzyme reactions were initiated with the addition of 5 μL of ATP to a final concentration of 100 μM and reacted for 20 mins.

EGFR L858R/T790M = EGFR L858R/T790M (Homo sapiens, UniProt P00533, L858R/T790M); experiment: HTRF-based EGFR biochemical assay, L858R/T790M; conditions: 100 μM ATP, enzyme 0.02 nM
Description: as §1

EGFR L858R/T790M/C797S = EGFR L858R/T790M/C797S (Homo sapiens, UniProt P00533, C797S/L858R/T790M); experiment: HTRF-based EGFR biochemical assay, L858R/T790M/C797S; conditions: 100 μM ATP, enzyme 0.02 nM
Description: as §1

WT EGFR Ba/F3 cells = WT EGFR Ba/F3 cells (Homo sapiens, UniProt P00533, cells depend on it, form not given); experiment: Ba/F3 cell proliferation (Cell Titer Glo), WT; format: cell-based, murine; conditions: Ba/F3, 72 hours, value in parentheses, meaning not explained, read-out: WT, inhibition of growth (value in parentheses)
WT EGFR Ba/F3 cells, sequence (P00533 whole entry, stated change not applied): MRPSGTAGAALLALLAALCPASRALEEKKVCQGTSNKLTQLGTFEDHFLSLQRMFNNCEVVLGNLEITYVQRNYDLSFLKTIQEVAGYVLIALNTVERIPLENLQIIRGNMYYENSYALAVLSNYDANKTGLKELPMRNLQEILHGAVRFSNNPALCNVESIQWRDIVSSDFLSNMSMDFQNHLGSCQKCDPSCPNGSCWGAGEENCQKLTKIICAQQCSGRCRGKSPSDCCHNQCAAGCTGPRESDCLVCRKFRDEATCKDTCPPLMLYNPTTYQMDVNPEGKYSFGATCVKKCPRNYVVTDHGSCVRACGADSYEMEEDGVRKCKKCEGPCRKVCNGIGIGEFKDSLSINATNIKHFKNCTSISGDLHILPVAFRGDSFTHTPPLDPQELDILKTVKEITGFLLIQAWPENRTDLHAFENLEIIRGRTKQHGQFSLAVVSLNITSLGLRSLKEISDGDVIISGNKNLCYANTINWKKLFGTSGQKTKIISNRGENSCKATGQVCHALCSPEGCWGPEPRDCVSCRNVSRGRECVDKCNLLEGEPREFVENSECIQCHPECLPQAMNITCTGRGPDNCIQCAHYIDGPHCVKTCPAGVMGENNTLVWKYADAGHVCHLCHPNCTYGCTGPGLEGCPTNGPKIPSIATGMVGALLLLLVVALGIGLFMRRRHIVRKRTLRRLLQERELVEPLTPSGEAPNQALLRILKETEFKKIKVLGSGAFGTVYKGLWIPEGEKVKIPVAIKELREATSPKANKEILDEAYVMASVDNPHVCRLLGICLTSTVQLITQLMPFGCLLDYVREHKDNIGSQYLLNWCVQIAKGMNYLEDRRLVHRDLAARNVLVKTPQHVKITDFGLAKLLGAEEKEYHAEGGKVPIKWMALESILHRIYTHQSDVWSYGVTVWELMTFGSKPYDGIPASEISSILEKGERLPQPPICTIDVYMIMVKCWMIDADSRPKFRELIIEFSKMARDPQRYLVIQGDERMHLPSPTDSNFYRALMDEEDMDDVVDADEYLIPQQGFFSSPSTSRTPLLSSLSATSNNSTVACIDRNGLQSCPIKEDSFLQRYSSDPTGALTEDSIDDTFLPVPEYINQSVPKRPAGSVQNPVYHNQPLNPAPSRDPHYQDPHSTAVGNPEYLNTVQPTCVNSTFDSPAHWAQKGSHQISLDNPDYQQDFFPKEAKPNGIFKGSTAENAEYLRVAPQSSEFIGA
Description: (§2) 100 units/mL streptomycin. The EGFR I941R mutation was introduced via site directed mutagenesis using the Quick Change Site-Directed Mutagenesis kit (Stratagene; La Jolla, CA) according to the manufacturer's instructions. All constructs were confirmed by DNA sequencing. The constructs were shuttled into the retroviral vector JP1540 using the Cre-recombination system (Agilent Technologies, Santa Clara, CA). […] Stable clones were obtained by selection in puromycin (2 μg/ml).
(§3) Growth and inhibition of growth was assessed by the Cell Titer Glo assay (Promega, Madison, WI) and was performed according to the manufacturer's instructions. The Cell Titer Glo assay is a luminescence-based method used to determine the number of viable cells based on quantitation of the ATP present, which is directly proportional to the amount of metabolically active cells present. […] All experimental points were set up in triplicates in 384-well plates and all experiments were repeated at least three times. […] The curves were fitted using a non-linear regression model with a sigmoidal dose response.

EGFR L858R Ba/F3 cells = EGFR L858R Ba/F3 cells (Homo sapiens, UniProt P00533, L858R, cells depend on it); experiment: Ba/F3 cell proliferation (Cell Titer Glo), L858R; format: cell-based, murine; conditions: Ba/F3, 72 hours, value in parentheses, meaning not explained, read-out: L858R, inhibition of growth (value in parentheses)
EGFR L858R Ba/F3 cells, sequence (P00533 whole entry L858R): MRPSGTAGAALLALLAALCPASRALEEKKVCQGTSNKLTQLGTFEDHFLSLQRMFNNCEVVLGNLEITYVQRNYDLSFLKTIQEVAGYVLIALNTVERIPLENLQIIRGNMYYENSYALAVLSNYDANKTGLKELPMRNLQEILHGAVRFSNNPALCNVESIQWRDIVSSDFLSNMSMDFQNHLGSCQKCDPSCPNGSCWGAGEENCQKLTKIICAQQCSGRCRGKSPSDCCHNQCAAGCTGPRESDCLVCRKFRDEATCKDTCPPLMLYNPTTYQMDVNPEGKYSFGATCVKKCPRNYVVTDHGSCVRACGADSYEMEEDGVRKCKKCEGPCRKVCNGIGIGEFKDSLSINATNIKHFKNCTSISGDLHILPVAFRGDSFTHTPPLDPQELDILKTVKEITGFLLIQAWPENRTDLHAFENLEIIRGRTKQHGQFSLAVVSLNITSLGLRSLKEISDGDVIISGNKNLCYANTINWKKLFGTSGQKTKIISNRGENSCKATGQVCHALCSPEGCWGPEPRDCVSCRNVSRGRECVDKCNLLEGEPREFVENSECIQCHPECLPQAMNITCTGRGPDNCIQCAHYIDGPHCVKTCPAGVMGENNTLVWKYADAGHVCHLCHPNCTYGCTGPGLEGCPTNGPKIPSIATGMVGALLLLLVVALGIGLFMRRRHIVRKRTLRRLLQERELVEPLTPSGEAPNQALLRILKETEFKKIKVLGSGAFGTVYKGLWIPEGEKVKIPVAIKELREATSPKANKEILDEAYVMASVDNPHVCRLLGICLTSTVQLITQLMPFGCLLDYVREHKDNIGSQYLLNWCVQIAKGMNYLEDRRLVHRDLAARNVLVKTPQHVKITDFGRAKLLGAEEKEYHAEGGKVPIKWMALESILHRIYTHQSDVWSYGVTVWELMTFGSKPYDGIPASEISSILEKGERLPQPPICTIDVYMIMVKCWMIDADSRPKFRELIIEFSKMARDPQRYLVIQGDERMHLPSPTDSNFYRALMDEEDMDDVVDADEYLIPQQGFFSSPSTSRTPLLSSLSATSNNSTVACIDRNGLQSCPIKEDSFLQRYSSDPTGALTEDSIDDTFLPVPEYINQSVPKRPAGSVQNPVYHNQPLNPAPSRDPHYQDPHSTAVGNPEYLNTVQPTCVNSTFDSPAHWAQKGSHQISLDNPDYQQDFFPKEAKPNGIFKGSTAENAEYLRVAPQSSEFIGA
Description: as §2, §3

[1] = target: EGFR L858R/T790M Ba/F3 cells (Homo sapiens, UniProt P00533, T790M/L858R, cells depend on it); experiment: Ba/F3 cell proliferation (Cell Titer Glo), L858R/T790M; format: cell-based, murine; conditions: Ba/F3, 72 hours, value in parentheses, meaning not explained, read-out: L858R/T790M, inhibition of growth (value in parentheses)
EGFR L858R/T790M Ba/F3 cells, sequence (P00533 whole entry T790M/L858R): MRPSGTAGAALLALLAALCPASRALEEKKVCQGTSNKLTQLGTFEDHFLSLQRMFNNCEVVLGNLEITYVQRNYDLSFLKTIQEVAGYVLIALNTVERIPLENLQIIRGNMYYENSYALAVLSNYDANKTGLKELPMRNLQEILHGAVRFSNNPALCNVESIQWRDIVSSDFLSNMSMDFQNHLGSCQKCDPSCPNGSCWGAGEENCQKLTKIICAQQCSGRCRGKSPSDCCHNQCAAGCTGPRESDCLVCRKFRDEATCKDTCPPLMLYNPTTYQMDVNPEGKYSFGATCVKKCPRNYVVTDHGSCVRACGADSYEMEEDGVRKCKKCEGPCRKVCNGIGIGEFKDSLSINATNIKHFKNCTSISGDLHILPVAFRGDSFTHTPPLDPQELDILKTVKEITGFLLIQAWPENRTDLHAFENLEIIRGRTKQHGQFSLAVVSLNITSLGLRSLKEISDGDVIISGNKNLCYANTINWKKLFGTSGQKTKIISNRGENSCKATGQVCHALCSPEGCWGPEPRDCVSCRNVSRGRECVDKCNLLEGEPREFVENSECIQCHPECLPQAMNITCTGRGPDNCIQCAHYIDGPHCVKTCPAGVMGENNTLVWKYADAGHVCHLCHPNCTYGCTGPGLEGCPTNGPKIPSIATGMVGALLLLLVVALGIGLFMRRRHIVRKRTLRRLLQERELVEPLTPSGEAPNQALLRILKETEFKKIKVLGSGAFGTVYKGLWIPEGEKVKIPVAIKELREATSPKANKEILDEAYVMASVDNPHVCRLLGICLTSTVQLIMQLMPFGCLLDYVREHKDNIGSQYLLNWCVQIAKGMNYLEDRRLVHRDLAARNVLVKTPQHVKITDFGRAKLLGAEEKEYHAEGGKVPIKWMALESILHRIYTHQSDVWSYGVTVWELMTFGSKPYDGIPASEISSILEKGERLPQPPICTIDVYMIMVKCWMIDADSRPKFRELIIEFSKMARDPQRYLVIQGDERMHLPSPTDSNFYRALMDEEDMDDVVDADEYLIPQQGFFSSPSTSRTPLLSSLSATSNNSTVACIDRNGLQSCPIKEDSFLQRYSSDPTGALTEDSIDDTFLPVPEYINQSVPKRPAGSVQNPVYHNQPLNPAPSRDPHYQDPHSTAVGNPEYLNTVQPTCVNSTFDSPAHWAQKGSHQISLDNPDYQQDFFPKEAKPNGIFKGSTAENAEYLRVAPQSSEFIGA
Description: as §2, §3

[2] = target: EGFR L858R/T790M/C797S Ba/F3 cells (Homo sapiens, UniProt P00533, T790M/C797S/L858R, cells depend on it); experiment: Ba/F3 cell proliferation (Cell Titer Glo), L858R/T790M/C797S; format: cell-based, murine; conditions: Ba/F3, 72 hours, value in parentheses, meaning not explained, read-out: L858R/T790M/C797S, inhibition of growth (value in parentheses)
EGFR L858R/T790M/C797S Ba/F3 cells, sequence (P00533 whole entry T790M/C797S/L858R): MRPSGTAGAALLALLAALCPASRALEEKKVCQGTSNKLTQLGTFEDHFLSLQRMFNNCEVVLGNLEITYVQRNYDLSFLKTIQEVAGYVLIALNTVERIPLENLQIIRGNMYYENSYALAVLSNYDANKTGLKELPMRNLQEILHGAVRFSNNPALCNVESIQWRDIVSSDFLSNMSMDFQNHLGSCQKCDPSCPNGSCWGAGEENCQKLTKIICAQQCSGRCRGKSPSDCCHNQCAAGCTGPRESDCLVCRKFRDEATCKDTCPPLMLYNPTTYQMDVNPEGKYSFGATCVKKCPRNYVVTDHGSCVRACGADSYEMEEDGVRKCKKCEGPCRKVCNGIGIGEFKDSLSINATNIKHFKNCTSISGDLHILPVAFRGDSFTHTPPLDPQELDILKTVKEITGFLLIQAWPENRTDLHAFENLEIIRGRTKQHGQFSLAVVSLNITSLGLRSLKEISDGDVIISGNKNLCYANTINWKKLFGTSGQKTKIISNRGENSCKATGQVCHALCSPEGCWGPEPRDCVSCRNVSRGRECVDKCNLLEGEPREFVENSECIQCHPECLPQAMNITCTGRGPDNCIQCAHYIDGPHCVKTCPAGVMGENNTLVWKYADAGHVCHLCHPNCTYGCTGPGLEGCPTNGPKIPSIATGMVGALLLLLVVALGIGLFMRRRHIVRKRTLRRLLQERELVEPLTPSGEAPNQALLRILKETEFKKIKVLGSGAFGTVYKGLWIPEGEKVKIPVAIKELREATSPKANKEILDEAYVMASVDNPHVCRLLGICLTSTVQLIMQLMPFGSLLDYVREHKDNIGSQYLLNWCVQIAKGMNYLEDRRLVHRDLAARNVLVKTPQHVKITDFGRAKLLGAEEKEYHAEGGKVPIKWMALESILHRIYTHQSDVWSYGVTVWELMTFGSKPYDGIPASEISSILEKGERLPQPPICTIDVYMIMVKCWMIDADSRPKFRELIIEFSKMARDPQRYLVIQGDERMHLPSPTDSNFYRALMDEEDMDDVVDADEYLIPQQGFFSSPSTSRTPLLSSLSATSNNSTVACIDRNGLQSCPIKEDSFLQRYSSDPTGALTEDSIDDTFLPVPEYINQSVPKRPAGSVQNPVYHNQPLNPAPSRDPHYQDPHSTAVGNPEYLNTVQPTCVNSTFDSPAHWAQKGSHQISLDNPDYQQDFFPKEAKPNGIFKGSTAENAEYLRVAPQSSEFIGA
Description: as §2, §3

| IC50 (EGFR WT) [nM] | IC50 (EGFR L858R) [nM] | IC50 (EGFR L858R/T790M) [nM] | IC50 (EGFR L858R/T790M/C797S) [nM] | EC50 (WT EGFR Ba/F3 cells) [nM] | EC50 (EGFR L858R Ba/F3 cells) [nM] | EC50 [1] [nM] | EC50 [2] [nM] | Structure (SMILES) |
| --- | --- | --- | --- | --- | --- | --- | --- | --- |
| – | – | – | – | > 2100 | > 5300 | > 5600 | > 10000 | CSc1nc(-c2cccc(NC(=O)c3ccccc3CN3Cc4ccccc4C3=O)c2)c(-c2ccnc(Nc3ccccc3)c2)[nH]1 [Compound 069, N-(3-(2-(methylthio)-5-(2-(phenylamino)pyridin-4-yl)-1H-imidazol-4-yl)phenyl)-2-((1-oxoisoindolin-2-yl)methyl)benzamide] |
| – | – | – | – | > 3300 | > 8700 | > 10000 | > 10000 | CSc1nc(-c2cccc(NC(=O)c3ccccc3CN3C(=O)c4ccccc4C3=O)c2)c(-c2ccnc(Nc3ccccc3)c2)[nH]1 [Compound 067, 2-((1,3-dioxoisoindolin-2-yl)methyl)-N-(3-(2-(methylthio)-5-(2-(phenylamino)pyridin-4-yl)-1H-imidazol-4-yl)phenyl)benzamide] |

Second part, the compound before the results:

| Structure (SMILES) | IC50 (EGFR WT) [nM] | IC50 (EGFR L858R) [nM] | IC50 (EGFR L858R/T790M) [nM] | IC50 (EGFR L858R/T790M/C797S) [nM] | EC50 (WT EGFR Ba/F3 cells) [nM] | EC50 (EGFR L858R Ba/F3 cells) [nM] | EC50 [1] [nM] | EC50 [2] [nM] |
| --- | --- | --- | --- | --- | --- | --- | --- | --- |
| C=CC(=O)Nc1ccc(OC)c(Nc2cc(-c3[nH]c(SC)nc3-c3cccc(NC(=O)c4ccccc4CN4Cc5ccccc5C4=O)c3)ccn2)c1 [Compound 064, N-(3-(5-(2-((5-acrylamido-2-methoxyphenyl)amino)pyridin-4-yl)-2-(methylthio)-1H-imidazol-4-yl)phenyl)-2-((1-oxoisoindolin-2-yl)methyl)benzamide] | 701 | 11 | 8 | 206 | > 4000 | 500 | 2500 | > 10000 |
| CSc1nc(-c2cccc(NC(=O)c3ccccc3CN3Cc4ccccc4C3=O)c2)c(-c2ccnc(NC(C)=O)c2)[nH]1 [Compound 047, N-(3-(5-(2-acetamidopyridin-4-yl)-2-(methylthio)-1H-imidazol-4-yl)phenyl)-2-((1-oxoisoindolin-2-yl)methyl)benzamide] | > 100000 | 96 | 759 | 610 | > 4300 | > 10000 | > 10000 | > 10000 |
| CSc1nc(-c2cccc(NC(=O)c3c(F)ccc(O)c3CN3C(=O)c4ccccc4C3=O)c2)c(-c2ccnc(Nc3ccccc3)c2)[nH]1 [Compound 068, 2-((1,3-dioxoisoindolin-2-yl)methyl)-6-fluoro-3-hydroxy-N-(3-(2-(methylthio)-5-(2-(phenylamino)pyridin-4-yl)-1H-imidazol-4-yl)phenyl)benzamide] | – | – | – | – | > 5600 | > 10000 | > 10000 | > 10000 |
